Experimental data published in PubChem BioAssay AID1259407 (Chemical Carcinogenesis Research Information System (CCRIS), 2018).
Active and inactive are the calls of the source. No rule for the calls is given here.

Tested on: CCRIS mutagenicity, Ames/micronucleus/aberration tests
Experiment: CCRIS mutagenicity studies
[1] = Test System: AMES SALMONELLA TYPHIMURIUM, Strain/Indicator: TA98, Metabolic Activation: NONE, Method: STANDARD PLATE
[2] = Test System: AMES SALMONELLA TYPHIMURIUM, Strain/Indicator: TA98, Metabolic Activation: RAT, LIVER, S-9, AROCLOR 1254, Method: STANDARD PLATE
[3] = Test System: AMES SALMONELLA TYPHIMURIUM, Strain/Indicator: TA100, Metabolic Activation: NONE, Method: STANDARD PLATE
[4] = Test System: AMES SALMONELLA TYPHIMURIUM, Strain/Indicator: TA100, Metabolic Activation: RAT, LIVER, S-9, AROCLOR 1254, Method: STANDARD PLATE
[5] = Test System: AMES SALMONELLA TYPHIMURIUM, Strain/Indicator: TA1535, Metabolic Activation: NONE, Method: STANDARD PLATE
[6] = Test System: AMES SALMONELLA TYPHIMURIUM, Strain/Indicator: TA1537, Metabolic Activation: NONE, Method: STANDARD PLATE
[7] = Test System: AMES SALMONELLA TYPHIMURIUM, Strain/Indicator: TA1538, Metabolic Activation: NONE, Method: STANDARD PLATE
[8] = Test System: AMES SALMONELLA TYPHIMURIUM, Strain/Indicator: TA98, Metabolic Activation: NONE, Method: PREINCUBATION
[9] = Test System: AMES SALMONELLA TYPHIMURIUM, Strain/Indicator: TA100, Metabolic Activation: NONE, Method: PREINCUBATION

Cn1cnc2c(N)ncnc21
mutagenic call (Test System: AMES SALMONELLA TYPHIMURIUM, Strain/Indicator: TA97, Metabolic Activation: NONE, Method: STANDARD PLATE): inactive; negative
mutagenic call (Test System: AMES SALMONELLA TYPHIMURIUM, Strain/Indicator: TA97, Metabolic Activation: RAT, LIVER, S-9, AROCLOR 1254, Method: STANDARD PLATE): inactive; negative
mutagenic call [1]: inactive; negative
mutagenic call [2]: active; positive
mutagenic call [3]: inactive; negative
mutagenic call [4]: inactive; negative

[CH3][Sn]([CH3])([CH3])[CH3]
mutagenic call (Test System: AMES SALMONELLA TYPHIMURIUM, Strain/Indicator: TA98, Metabolic Activation: NONE, Method: SUSPENSION/PLATE): inactive; negative
mutagenic call (Test System: AMES SALMONELLA TYPHIMURIUM, Strain/Indicator: TA100, Metabolic Activation: NONE, Method: SUSPENSION/PLATE): inactive; negative

CCN(CCCl)c1ccc(OCCCCCNc2c3ccccc3nc3ccccc23)cc1
mutagenic call (Test System: AMES SALMONELLA TYPHIMURIUM, Strain/Indicator: DG1588, Metabolic Activation: NONE, Method: STANDARD PLATE): inactive; negative
mutagenic call (Test System: AMES SALMONELLA TYPHIMURIUM, Strain/Indicator: DG1592, Metabolic Activation: NONE, Method: STANDARD PLATE): inactive; negative
mutagenic call (Test System: AMES SALMONELLA TYPHIMURIUM, Strain/Indicator: DG1593, Metabolic Activation: NONE, Method: STANDARD PLATE): active; positive
mutagenic call [1]: active; positive
mutagenic call [3]: active; positive
mutagenic call (Test System: AMES SALMONELLA TYPHIMURIUM, Strain/Indicator: TA102, Metabolic Activation: NONE, Method: STANDARD PLATE): inactive; negative
mutagenic call (Test System: AMES SALMONELLA TYPHIMURIUM, Strain/Indicator: TA104, Metabolic Activation: NONE, Method: STANDARD PLATE): inactive; negative
mutagenic call [5]: inactive; negative
mutagenic call (Test System: AMES SALMONELLA TYPHIMURIUM, Strain/Indicator: TA1537 (PKM101), Metabolic Activation: NONE, Method: STANDARD PLATE): active; positive
mutagenic call [6]: active; positive
mutagenic call [7]: inactive; negative
mutagenic call (Test System: AMES SALMONELLA TYPHIMURIUM, Strain/Indicator: TA1975 (PKM101), Metabolic Activation: NONE, Method: STANDARD PLATE): inactive; negative
mutagenic call (Test System: AMES SALMONELLA TYPHIMURIUM, Strain/Indicator: TA1975, Metabolic Activation: NONE, Method: STANDARD PLATE): inactive; negative
mutagenic call (Test System: AMES SALMONELLA TYPHIMURIUM, Strain/Indicator: TA1977, Metabolic Activation: NONE, Method: STANDARD PLATE): active; positive
mutagenic call (Test System: AMES SALMONELLA TYPHIMURIUM, Strain/Indicator: TA1978 (PKM101), Metabolic Activation: NONE, Method: STANDARD PLATE): active; positive
mutagenic call (Test System: AMES SALMONELLA TYPHIMURIUM, Strain/Indicator: TA1978, Metabolic Activation: NONE, Method: STANDARD PLATE): inactive; negative
mutagenic call (Test System: AMES SALMONELLA TYPHIMURIUM, Strain/Indicator: TA4001, Metabolic Activation: NONE, Method: STANDARD PLATE): active; positive
mutagenic call (Test System: AMES SALMONELLA TYPHIMURIUM, Strain/Indicator: TA4006, Metabolic Activation: NONE, Method: STANDARD PLATE): inactive; negative

C=C(CC(=O)OCC)C(=O)OCC
mutagenic call (Test System: Chinese hamster ovary cells, Metabolic Activation: None, Method: CHO/HGPRT assay): inactive; negative

COC(=O)[C@H]1O[C@@H]1c1ccccc1
mutagenic call [1]: inactive; negative
mutagenic call [2]: inactive; negative
mutagenic call [4]: inactive; negative
mutagenic call [5]: inactive; negative
mutagenic call (Test System: AMES SALMONELLA TYPHIMURIUM, Strain/Indicator: TA1535, Metabolic Activation: RAT, LIVER, S-9, AROCLOR 1254, Method: STANDARD PLATE): inactive; negative
mutagenic call [6]: inactive; negative
mutagenic call (Test System: AMES SALMONELLA TYPHIMURIUM, Strain/Indicator: TA1537, Metabolic Activation: RAT, LIVER, S-9, AROCLOR 1254, Method: STANDARD PLATE): inactive; negative
mutagenic call [7]: inactive; negative
mutagenic call (Test System: AMES SALMONELLA TYPHIMURIUM, Strain/Indicator: TA1538, Metabolic Activation: RAT, LIVER, S-9, AROCLOR 1254, Method: STANDARD PLATE): inactive; negative

CCc1ccc(N)cc1
mutagenic call (Test System: E. COLI, Strain/Indicator: WP2 UVRA, Metabolic Activation: NONE, Method: FLUCTUATION TEST): inactive; negative

Cc1ccc2nc3c(c(C)c2c1)[C@@H](O)[C@H](O)c1ccccc1-3
mutagenic call [4]: inactive; negative

Nc1cc(Cl)ccc1[N+](=O)[O-]
mutagenic call (End Point: IN VITRO CHROMOSOMAL ABERRATIONS, Test System: CHL CELLS, Metabolic Activation: RAT, LIVER, S-9, SODIUM PHENOBARBITAL AND 5,6-BENZOFLAVONE): active; positive (structural changes); authors report equivocal results for ploidy chang
mutagenic call [8]: active; positive
mutagenic call (Test System: AMES SALMONELLA TYPHIMURIUM, Strain/Indicator: TA98, Metabolic Activation: RAT LIVER S-9, PHENOBARBITAL AND BETA-NAPHTHOFLAVONE, Method: PREINCUBATION): active; positive
mutagenic call [9]: inactive; negative
mutagenic call (Test System: AMES SALMONELLA TYPHIMURIUM, Strain/Indicator: TA100, Metabolic Activation: RAT LIVER S-9, PHENOBARBITAL AND BETA-NAPHTHOFLAVONE, Method: PREINCUBATION): inactive; negative
mutagenic call (Test System: AMES SALMONELLA TYPHIMURIUM, Strain/Indicator: TA1535, Metabolic Activation: NONE, Method: PREINCUBATION): inactive; negative
mutagenic call (Test System: AMES SALMONELLA TYPHIMURIUM, Strain/Indicator: TA1535, Metabolic Activation: RAT LIVER S-9, PHENOBARBITAL AND BETA-NAPHTHOFLAVONE, Method: PREINCUBATION): inactive; negative
mutagenic call (Test System: AMES SALMONELLA TYPHIMURIUM, Strain/Indicator: TA1537, Metabolic Activation: NONE, Method: PREINCUBATION): inactive; negative
mutagenic call (Test System: AMES SALMONELLA TYPHIMURIUM, Strain/Indicator: TA1537, Metabolic Activation: RAT LIVER S-9, PHENOBARBITAL AND BETA-NAPHTHOFLAVONE, Method: PREINCUBATION): inactive; negative
mutagenic call (Test System: E.COLI, Strain/Indicator: WP2UVRA, Metabolic Activation: NONE, Method: PREINCUBATION): inactive; negative
mutagenic call (Test System: E.COLI, Strain/Indicator: WP2UVRA, Metabolic Activation: RAT LIVER S-9, PHENOBARBITAL AND BETA-NAPHTHOFLAVONE, Method: PREINCUBATION): inactive; negative

Cc1ccc2c(c1)C(=O)c1cc(O)ccc1C2=O
mutagenic call [8]: inactive; negative
mutagenic call (Test System: AMES SALMONELLA TYPHIMURIUM, Strain/Indicator: TA98, Metabolic Activation: RAT, LIVER, S-9, PCB, Method: PREINCUBATION): active; positive
mutagenic call [9]: active; positive
mutagenic call (Test System: AMES SALMONELLA TYPHIMURIUM, Strain/Indicator: TA100, Metabolic Activation: RAT, LIVER, S-9, PCB, Method: PREINCUBATION): active; positive
